Assay results published in ChEMBL document CHEMBL1151463, “Human immunodeficiency virus types 1 and 2 exhibit comparable sensitivities to Zidovudine and other nucleoside analog inhibitors in vitro” (Antimicrob Agents Chemother, 2008).
The source made the active and inactive calls. No cut-off for these calls is given here.

Assays:
[1] = test system: Human immunodeficiency virus 1; test: Selectivity ratio of EC50 for multinucleoside-resistant HIV1 NL4-3 harboring A62V, V75I, F77L, F116Y, Q151M mutation in viral reverse transcriptase to EC50 for wild type HIV1 NL4-3; type: functional
[2] = test system: Human immunodeficiency virus 2; test: Antiviral activity against wild type HIV2 ROD produced from full length pROD9 infected in human MAGIC-5A cells assessed as inhibition of Lac+ foci expression after 40 hrs; type: functional, organism-based; conditions: for EC50: Human immunodeficiency virus 2, ISOLATE ROD
[3] = test system: Human immunodeficiency virus 1; test: Antiviral activity against wild type HIV1 NL4-3 produced from full length pR9deltaApa infected in human MAGIC-5A cells assessed as inhibition of Lac+ foci expression after 40 hrs; type: functional, organism-based; conditions: Human immunodeficiency virus 1, NL4-3, MAGIC-5A
[4] = test system: Human immunodeficiency virus 1; test: Antiviral activity against multinucleoside-resistant HIV1 NL4-3 harboring A62V, V75I, F77L, F116Y, Q151M mutation in viral reverse transcriptase infected in human MAGIC-5A cells assessed as inhibition of Lac+ foci expression after 40 hrs; type: functional, organism-based; conditions: Human immunodeficiency virus 1, NL4-3, MAGIC-5A
[5] = test system: Human immunodeficiency virus 2; test: Antiviral activity against recombinant HIV2 ROD carrying HIV2 UC2 reverse transcriptase infected in human MAGIC-5A cells assessed as inhibition of Lac+ foci expression after 40 hrs; type: functional, organism-based; conditions: Human immunodeficiency virus 2, ISOLATE ROD
[6] = test system: Human immunodeficiency virus 2; test: Antiviral activity against wild type HIV2 CDC310319 infected in human MAGIC-5A cells assessed as inhibition of Lac+ foci expression after 40 hrs; type: functional, organism-based

Nc1nc(NC2CC2)c2ncn([C@H]3C=C[C@@H](CO)C3)c2n1 [ABACAVIR]
Ratio EC50 [1]: 5
EC50 [2]: 7.2 µM
EC50 [3]: 7.6 µM
EC50 [4]: 40 µM

O=c1[nH]cnc2c1ncn2[C@H]1CC[C@@H](CO)O1 [DIDANOSINE]
Ratio EC50 [1]: 10
EC50 [2]: 8 µM
EC50 [3]: 4.7 µM
EC50 [4]: 45 µM

Nc1nc(=O)n([C@@H]2CS[C@H](CO)O2)cc1F [EMTRICITABINE]
Ratio EC50 [1]: 3
EC50 [2]: 0.5 µM
EC50 [3]: 0.27 µM
EC50 [4]: 0.79 µM

Nc1ccn([C@@H]2CS[C@H](CO)O2)c(=O)n1 [LAMIVUDINE]
Ratio EC50 [1]: 4
EC50 [2]: 2 µM
EC50 [3]: 0.88 µM
EC50 [4]: 3.7 µM

Cc1cn([C@H]2C=C[C@@H](CO)O2)c(=O)[nH]c1=O [STAVUDINE]
Ratio EC50 [1]: 14
EC50 [2]: 7.1 µM
EC50 [3]: 5.5 µM
EC50 [4]: 79 µM

C[C@H](Cn1cnc2c(N)ncnc21)OCP(=O)(O)O [TENOFOVIR ANHYDROUS]
Ratio EC50 [1]: 4
EC50 [2]: 7.2 µM
EC50 [3]: 7.2 µM
EC50 [4]: 26 µM

Cc1cn([C@H]2C[C@H](N=[N+]=[N-])[C@@H](CO)O2)c(=O)[nH]c1=O [ZIDOVUDINE]
Ratio EC50 [1]: 43
EC50 [2]: 0.12 µM
Activity ([2]; ISOLATE ROD): Dose-dependent effect
EC50 [3]: 0.16 µM
EC50 [4]: 7 µM
EC50 [5]: 0.071 µM
Activity [6]: Active
